Calls of active or inactive are those of the source. The rule behind the calls is not given here.
Key:
PBMC [1] = experiment: Induction of IL1-beta secretion in human PBMC after 24 hrs by Luminex Multiplex assay; assay type: functional, cell-based
PBMC [2] = experiment: Induction of IFN-gamma secretion in human PBMC after 24 hrs by Luminex Multiplex assay; assay type: functional, cell-based
PBMC [3] = experiment: Induction of IL2R secretion in human PBMC after 24 hrs by Luminex Multiplex assay; assay type: functional, cell-based
PBMC [4] = experiment: Induction of IL12 secretion in human PBMC after 24 hrs by Luminex Multiplex assay; assay type: functional, cell-based
PBMC [5] = experiment: Induction of IFNalpha secretion in human PBMC after 24 hrs by Luminex Multiplex assay; assay type: functional, cell-based
[6] = Stability in 1% human serum assessed as full length product after 10 mins; assay type: ADME, cell-free; settings: read-out: Stability
[7] = molecular target: T1, Toll-like receptor 7 (Homo sapiens) (UniProt Q9NYK1); experiment: Activation of human TLR7 expressed in HEK293 cells assessed as increase in NF-kappaB activation at 100 ug/ml by SEAP assay; assay type: cell-based
T1 sequence (whole entry): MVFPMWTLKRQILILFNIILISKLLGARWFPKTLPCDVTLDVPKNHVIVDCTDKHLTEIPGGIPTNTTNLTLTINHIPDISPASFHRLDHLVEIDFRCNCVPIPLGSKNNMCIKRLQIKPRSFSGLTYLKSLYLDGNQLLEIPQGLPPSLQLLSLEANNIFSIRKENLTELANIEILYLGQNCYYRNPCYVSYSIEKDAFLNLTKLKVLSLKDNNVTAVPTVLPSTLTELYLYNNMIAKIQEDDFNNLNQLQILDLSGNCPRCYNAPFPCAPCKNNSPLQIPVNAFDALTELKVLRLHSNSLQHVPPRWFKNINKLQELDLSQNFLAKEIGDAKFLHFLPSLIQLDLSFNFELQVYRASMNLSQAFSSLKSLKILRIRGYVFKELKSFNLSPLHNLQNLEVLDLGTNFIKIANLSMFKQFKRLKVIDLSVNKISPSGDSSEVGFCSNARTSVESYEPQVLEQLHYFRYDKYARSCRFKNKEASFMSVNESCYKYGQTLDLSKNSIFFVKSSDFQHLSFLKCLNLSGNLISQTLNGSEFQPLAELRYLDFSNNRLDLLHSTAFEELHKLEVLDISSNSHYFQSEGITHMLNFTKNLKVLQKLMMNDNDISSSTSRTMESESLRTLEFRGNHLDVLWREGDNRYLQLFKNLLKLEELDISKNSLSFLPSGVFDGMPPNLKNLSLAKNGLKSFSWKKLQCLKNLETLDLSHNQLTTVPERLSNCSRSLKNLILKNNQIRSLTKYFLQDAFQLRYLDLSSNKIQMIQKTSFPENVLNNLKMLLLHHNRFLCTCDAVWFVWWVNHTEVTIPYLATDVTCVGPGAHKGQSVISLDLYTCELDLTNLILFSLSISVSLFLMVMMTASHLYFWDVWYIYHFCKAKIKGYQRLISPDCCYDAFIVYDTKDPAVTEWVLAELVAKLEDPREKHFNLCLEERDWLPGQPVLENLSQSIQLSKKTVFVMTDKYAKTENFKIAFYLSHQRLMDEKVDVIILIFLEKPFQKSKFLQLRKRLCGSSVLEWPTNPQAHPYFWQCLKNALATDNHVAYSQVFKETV

[8] = molecular target: T2, Toll-like receptor 8 (Homo sapiens) (UniProt Q9NR97); experiment: Activation of human TLR8 expressed in HEK293 cells assessed as increase in NF-kappaB activation at 100 ug/ml by SEAP assay; assay type: cell-based
T2 sequence (whole entry): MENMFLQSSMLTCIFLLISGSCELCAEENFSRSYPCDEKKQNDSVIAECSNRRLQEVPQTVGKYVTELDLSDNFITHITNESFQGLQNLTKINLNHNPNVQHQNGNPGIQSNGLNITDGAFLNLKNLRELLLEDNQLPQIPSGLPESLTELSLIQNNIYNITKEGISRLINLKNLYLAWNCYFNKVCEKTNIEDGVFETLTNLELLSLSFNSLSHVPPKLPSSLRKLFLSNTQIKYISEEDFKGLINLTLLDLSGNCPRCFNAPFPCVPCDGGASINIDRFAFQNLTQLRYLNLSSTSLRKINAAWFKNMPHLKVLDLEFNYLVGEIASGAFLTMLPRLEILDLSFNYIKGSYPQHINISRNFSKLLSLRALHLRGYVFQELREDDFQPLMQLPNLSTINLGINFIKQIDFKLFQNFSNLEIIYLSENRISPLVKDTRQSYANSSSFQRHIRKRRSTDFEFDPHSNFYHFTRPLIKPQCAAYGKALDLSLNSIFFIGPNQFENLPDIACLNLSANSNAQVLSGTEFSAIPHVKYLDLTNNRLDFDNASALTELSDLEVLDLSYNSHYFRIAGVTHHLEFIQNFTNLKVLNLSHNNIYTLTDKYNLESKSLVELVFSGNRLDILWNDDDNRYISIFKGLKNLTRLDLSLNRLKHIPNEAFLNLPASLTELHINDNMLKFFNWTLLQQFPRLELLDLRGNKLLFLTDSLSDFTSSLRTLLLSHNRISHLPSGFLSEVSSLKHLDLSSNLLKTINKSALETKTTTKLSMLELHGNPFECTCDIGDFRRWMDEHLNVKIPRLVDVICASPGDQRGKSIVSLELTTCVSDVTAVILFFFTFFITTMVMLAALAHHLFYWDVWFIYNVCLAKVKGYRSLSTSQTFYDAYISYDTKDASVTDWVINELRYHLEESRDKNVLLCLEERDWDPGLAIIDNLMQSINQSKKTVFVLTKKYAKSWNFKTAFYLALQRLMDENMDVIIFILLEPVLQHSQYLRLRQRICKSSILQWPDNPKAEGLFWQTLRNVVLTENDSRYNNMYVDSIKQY

PBMC [9] = experiment: Induction of IL10 secretion in human PBMC after 24 hrs by Luminex Multiplex assay; assay type: functional, cell-based
Dendritic cell = experiment: Induction of IFNalpha secretion in human plasmacytoid dendritic cells at 200 ug/ml after 24 hrs by Luminex Multiplex assay; assay type: functional
spleen [10] = experiment: Induction of chemokine secretion in C57BL/6 mouse spleen cells 100 ug/ml after 24 hrs by Luminex Multiplex assay; assay type: functional, cell-based
spleen [11] = experiment: Induction of cytokine secretion in C57BL/6 mouse spleen cells at 100 ug/ml after 24 hrs by Luminex Multiplex assay; assay type: functional, cell-based

| SMILES | Activity (PBMC [1]) | Activity (PBMC [2]) | Activity (PBMC [3]) | Activity (PBMC [4]) | Activity (PBMC [5]) | remaining at 10 min [6] [%] | Activity [7] | Activity [8] | Activity (PBMC [9]) | Activity (Dendritic cell) | Activity (spleen [10]) | Activity (spleen [11]) |
| --- | --- | --- | --- | --- | --- | --- | --- | --- | --- | --- | --- | --- |
| Nc1ccn([C@@H]2O[C@H](COP(O)(=S)O[C@H]3[C@@H](O)[C@H](n4ccc(=O)[nH]c4=O)O[C@@H]3COP(O)(=S)O[C@H]3[C@@H](O)[C@H](n4ccc(=O)[nH]c4=O)O[C@@H]3COP(O)(=S)O[C@H]3[C@@H](O)[C@H](n4ccc(N)nc4=O)O[C@@H]3COP(O)(=S)O[C@H]3[C@@H](O)[C@H](n4cnc5c(=O)[nH]c(N)nc54)O[C@@H]3COP(O)(=S)O[C@H]3[C@@H](O)[C@H](n4ccc(=O)[nH]c4=O)O[C@@H]3COP(O)(=S)O[C@H]3[C@@H](O)[C@H](n4ccc(N)nc4=O)O[C@@H]3COP(O)(=S)O[C@H]3[C@@H](O)[C@H](n4cnc5c(=O)[nH]c(N)nc54)O[C@@H]3COP(O)(=S)O[C@H]3[C@@H](O)[C@H](n4ccc(=O)[nH]c4=O)O[C@@H]3CO)[C@@H](OP(O)(=S)OC[C@H]3O[C@@H](n4ccc(=O)[nH]c4=O)[C@H](O)[C@@H]3OP(O)(=S)OC[C@H]3O[C@@H](n4cnc5c(=O)[nH]c(N)nc54)[C@H](O)[C@@H]3OP(O)(=S)OCC(O)COP(O)(=S)O[C@H]3[C@@H](O)[C@H](n4cnc5c(=O)[nH]c(N)nc54)O[C@@H]3COP(O)(=S)O[C@H]3[C@@H](O)[C@H](n4ccc(=O)[nH]c4=O)O[C@@H]3COP(O)(=S)O[C@H]3[C@@H](O)[C@H](n4ccc(N)nc4=O)O[C@@H]3COP(O)(=S)O[C@H]3[C@@H](O)[C@H](n4ccc(=O)[nH]c4=O)O[C@@H]3COP(O)(=S)O[C@H]3[C@@H](O)[C@H](n4ccc(=O)[nH]c4=O)O[C@@H]3COP(O)(=S)O[C@H]3[C@@H](O)[C@H](n4ccc(N)nc4=O)O[C@@H]3COP(O)(=S)O[C@H]3[C@@H](O)[C@H](n4cnc5c(=O)[nH]c(N)nc54)O[C@@H]3COP(O)(=S)O[C@H]3[C@@H](O)[C@H](n4ccc(=O)[nH]c4=O)O[C@@H]3COP(O)(=S)O[C@H]3[C@@H](O)[C@H](n4ccc(N)nc4=O)O[C@@H]3COP(O)(=S)O[C@H]3[C@@H](O)[C@H](n4cnc5c(=O)[nH]c(N)nc54)O[C@@H]3COP(O)(=S)O[C@H]3[C@@H](O)[C@H](n4ccc(=O)[nH]c4=O)O[C@@H]3CO)[C@H]2O)c(=O)n1 (some centres undefined) | Dose-dependent effect | Dose-dependent effect | Dose-dependent effect | Dose-dependent effect | Dose-dependent effect | 56 | inactive | Active | Dose-dependent effect | – | – | – |
| Nc1ccn([C@@H]2O[C@H](COP(O)(=S)O[C@H]3[C@@H](O)[C@H](n4ccc(=O)[nH]c4=O)O[C@@H]3COP(O)(=S)O[C@H]3[C@@H](O)[C@H](n4ccc(=O)[nH]c4=O)O[C@@H]3COP(O)(=S)O[C@H]3[C@@H](O)[C@H](n4ccc(N)nc4=O)O[C@@H]3COP(O)(=S)O[C@H]3[C@@H](O)[C@H](n4ccc5c(=O)[nH]c(N)nc54)O[C@@H]3COP(O)(=S)O[C@H]3[C@@H](O)[C@H](n4ccc(=O)[nH]c4=O)O[C@@H]3COP(O)(=S)O[C@H]3[C@@H](O)[C@H](n4ccc(N)nc4=O)O[C@@H]3COP(O)(=S)O[C@H]3[C@@H](O)[C@H](n4ccc5c(=O)[nH]c(N)nc54)O[C@@H]3COP(O)(=S)O[C@H]3[C@@H](O)[C@H](n4ccc(=O)[nH]c4=O)O[C@@H]3CO)[C@@H](OP(O)(=S)OC[C@H]3O[C@@H](n4ccc(=O)[nH]c4=O)[C@H](O)[C@@H]3OP(O)(=S)OC[C@H]3O[C@@H](n4ccc5c(=O)[nH]c(N)nc54)[C@H](O)[C@@H]3OP(O)(=S)OCCC(O)CCOP(O)(=S)O[C@H]3[C@@H](O)[C@H](n4ccc5c(=O)[nH]c(N)nc54)O[C@@H]3COP(O)(=S)O[C@H]3[C@@H](O)[C@H](n4ccc(=O)[nH]c4=O)O[C@@H]3COP(O)(=S)O[C@H]3[C@@H](O)[C@H](n4ccc(N)nc4=O)O[C@@H]3COP(O)(=S)O[C@H]3[C@@H](O)[C@H](n4ccc(=O)[nH]c4=O)O[C@@H]3COP(O)(=S)O[C@H]3[C@@H](O)[C@H](n4ccc(=O)[nH]c4=O)O[C@@H]3COP(O)(=S)O[C@H]3[C@@H](O)[C@H](n4ccc(N)nc4=O)O[C@@H]3COP(O)(=S)O[C@H]3[C@@H](O)[C@H](n4ccc5c(=O)[nH]c(N)nc54)O[C@@H]3COP(O)(=S)O[C@H]3[C@@H](O)[C@H](n4ccc(=O)[nH]c4=O)O[C@@H]3COP(O)(=S)O[C@H]3[C@@H](O)[C@H](n4ccc(N)nc4=O)O[C@@H]3COP(O)(=S)O[C@H]3[C@@H](O)[C@H](n4ccc5c(=O)[nH]c(N)nc54)O[C@@H]3COP(O)(=S)O[C@H]3[C@@H](O)[C@H](n4ccc(=O)[nH]c4=O)O[C@@H]3CO)[C@H]2O)c(=O)n1 (some centres undefined) | – | – | – | – | – | – | Active | Active | – | Active | Dose-dependent effect | Dose-dependent effect |
